Data on one compound can be found in ChEMBL document CHEMBL1153122, “Pyrazolone based TGFbetaR1 kinase inhibitors” (Bioorg Med Chem Lett, 2010).

Data set [1] is described as follows: Oral bioavailability in rat at 5 mg/kg. It counts as ADME, organism-based. As to conditions: in vivo.
A short description of data set [2]: Half life in rat at 5 mg/kg, po and iv. It counts as ADME, organism-based. On the set-up: dose 5 mg/kg, route oral. The settings on record: in vivo.
The species entered for a further data set is Mus musculus. Kind of data set: animal or person. As to conditions: BALB/c, po, 1 h, read-out: INH.

Compound `Cn1c(-c2ccc3nccnc3c2)c(-c2cccc(Br)c2)c(=O)n1C` displayed a bioavailability in data set [1] of 34%. In addition, the half-life in data set [2] is 3 h. The inhibition in vivo at 3 mg/kg in the data set filed under Mus musculus was 43%.
